Source: ChEMBL document CHEMBL1201862, “PubChem BioAssay data set” (2004)
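Exposure lasted 48 hours, with cells grown in 96-well plates and compounds tested at five concentrations. GI50 marks 50% less growth.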 Active and inactive are the calls of the source. Rule as the data show it: active = GI50 up to about 1.1 µM and inactive = higher.

Assays:
Assay in all cases: growth of human tumour cells (NCI), 48 h
SK-MEL-2 = tested on: SK-MEL-2
SF-539 = tested on: SF-539
SW-620 = tested on: SW-620
MDA-MB-231 = tested on: MDA-MB-231
DU-145 = tested on: DU-145
NCI-H522 = tested on: NCI-H522
OVCAR-5 = tested on: OVCAR-5
BT-549 = tested on: BT-549
ACHN = tested on: ACHN
NCI-H226 = tested on: NCI-H226
HOP-92 = tested on: HOP-92
HOP-62 = tested on: HOP-62
KM12 = tested on: KM12
Hs-578T = tested on: Hs-578T
UO-31 = tested on: UO-31
PC-3 = tested on: PC-3
RXF 393 = tested on: RXF 393
SK-MEL-5 = tested on: SK-MEL-5

Compound | GI50 (SK-MEL-2) | GI50 (SF-539) | GI50 (SW-620) | GI50 (MDA-MB-231) | GI50 (DU-145) | GI50 (NCI-H522) | GI50 (OVCAR-5) | GI50 (BT-549) | GI50 (ACHN) | GI50 (NCI-H226) | GI50 (HOP-92) | GI50 (HOP-62) | GI50 (KM12) | GI50 (Hs-578T) | GI50 (UO-31) | GI50 (PC-3) | GI50 (RXF 393) | GI50 (SK-MEL-5)
CO[C@@H]1C[C@H](OC(N)=O)[C@@H]2C=C[C@@H]3/C=C(C)/C=C/[C@@H](C)[C@H](/C(C)=C/[C@@H](C)NC(C)=O)OC(=O)/C=C/C=C(C)\C=C\[C@]3(C)[C@@H]2C1 [SUPERSTOLIDE B] | 0.319 µM (active) | < 0.005 µM (active) | < 0.005 µM (active) | < 0.005 µM (active) | < 0.005 µM (active) | < 0.005 µM (active) | 0.466 µM (active) | 0.224 µM (active) | < 0.005 µM (active) | < 0.005 µM (active) | < 0.005 µM (active) | < 0.005 µM (active) | < 0.005 µM (active) | < 0.005 µM (active) | < 0.005 µM (active) | < 0.005 µM (active) | < 0.005 µM (active) | < 0.005 µM (active)
OCCCNCc1ccncc1 | > 100 µM (inactive) | > 100 µM (inactive) | > 100 µM (inactive) | > 100 µM (inactive) | > 100 µM (inactive) | > 100 µM (inactive) | > 100 µM (inactive) | > 100 µM (inactive) | > 100 µM (inactive) | > 100 µM (inactive) | > 100 µM (inactive) | > 100 µM (inactive) | > 100 µM (inactive) | > 100 µM (inactive) | > 100 µM (inactive) | > 100 µM (inactive) | > 100 µM (inactive) | > 100 µM (inactive)
COc1cc(C2C3=C(COC3=O)Oc3cc4c(cc32)OCO4)ccc1O (centres undefined) | 0.543 µM (active) | 0.281 µM (active) | 0.329 µM (active) | 0.818 µM (active) | 0.514 µM (active) | 0.0792 µM (active) | 3.78 µM (inactive) | 1.1 µM (active) | 0.653 µM (active) | 9.55 µM (inactive) | 3.59 µM (inactive) | 0.394 µM (active) | 0.262 µM (active) | 0.329 µM (active) | 0.327 µM (active) | 0.167 µM (active) | 0.306 µM (active) | 0.0728 µM (active)
CCCC(=O)N1CCN(c2ccc3c(c2)OC(C)O3)CC1 (centres undefined) |  | > 100 µM (inactive) | > 100 µM (inactive) | > 100 µM (inactive) | > 100 µM (inactive) | > 100 µM (inactive) | > 100 µM (inactive) | > 100 µM (inactive) | > 100 µM (inactive) | > 100 µM (inactive) | > 100 µM (inactive) | > 100 µM (inactive) | > 100 µM (inactive) | > 100 µM (inactive) | > 100 µM (inactive) | > 100 µM (inactive) | > 100 µM (inactive) | > 100 µM (inactive)
O=S(=O)(NC1OCCCC1I)c1ccccc1 (centres undefined) | > 100 µM (inactive) | > 100 µM (inactive) | > 100 µM (inactive) | > 100 µM (inactive) | > 100 µM (inactive) | > 100 µM (inactive) | > 100 µM (inactive) | > 100 µM (inactive) | > 100 µM (inactive) | > 100 µM (inactive) | > 100 µM (inactive) | > 100 µM (inactive) | > 100 µM (inactive) | > 100 µM (inactive) | > 100 µM (inactive) | > 100 µM (inactive) | > 100 µM (inactive) | > 100 µM (inactive)
CCCCCCCC(=O)OC[n+]1cccc(-c2c(COC(=O)NC(C)C)c(COC(=O)NC(C)C)c3n2CCC3)c1 | > 100 µM (inactive) | 33.7 µM (inactive) | > 50.5 µM (inactive) | > 100 µM (inactive) | > 83.9 µM (inactive) | 40.4 µM (inactive) | > 100 µM (inactive) | > 84.5 µM (inactive) | 34 µM (inactive) | 97.5 µM (inactive) | 44.8 µM (inactive) | > 63.1 µM (inactive) | > 100 µM (inactive) | > 100 µM (inactive) | 62.8 µM (inactive) | > 88.3 µM (inactive) | 44.2 µM (inactive) | > 100 µM (inactive)
O[C@]12C=C(c3nccc4c3[nH]c3ccccc34)[C@@H]3CCN(CCCC/C=C\CC1)C[C@@]31CC3/C=C\CCCCN3[C@H]12 (some centres undefined) | 0.244 µM (active) | 0.53 µM (active) | 0.306 µM (active) | 0.484 µM (active) | 0.344 µM (active) | 0.263 µM (active) | 0.405 µM (active) | 0.804 µM (active) | 0.299 µM (active) | 0.582 µM (active) | 0.252 µM (active) | 0.223 µM (active) | 0.387 µM (active) | 0.411 µM (active) | 0.199 µM (active) | 0.351 µM (active) |  | 0.187 µM (active)
N/C(=N\Nc1cccc(Cl)c1)c1cccnc1 | 36.9 µM (inactive) | 30.2 µM (inactive) | 54.2 µM (inactive) | 81.1 µM (inactive) | 82.2 µM (inactive) | 29.6 µM (inactive) | 41.3 µM (inactive) | > 69 µM (inactive) | 18.9 µM (inactive) | 33.9 µM (inactive) | > 68.7 µM (inactive) | > 100 µM (inactive) | 30 µM (inactive) | > 100 µM (inactive) | 7.87 µM (inactive) | 31 µM (inactive) | 23.1 µM (inactive) | 32.9 µM (inactive)
CC(C)(C)c1ccc(O)c(CN(Cc2cc(C(C)(C)C)ccc2O)c2ccccc2)c1 | 17.6 µM (inactive) | 17.6 µM (inactive) | 18.5 µM (inactive) | 16.9 µM (inactive) | 19.1 µM (inactive) | 13.3 µM (inactive) | 16.1 µM (inactive) | 21 µM (inactive) | 16.6 µM (inactive) |  | 16.2 µM (inactive) | 20.8 µM (inactive) | 22.2 µM (inactive) | 18.6 µM (inactive) | 14.4 µM (inactive) | 17.9 µM (inactive) | 13.6 µM (inactive) | 15.1 µM (inactive)
CC(=O)Nc1ccc2c3c(cc(O)c2c1)N(C(=O)CCCCCC(=O)N1CC(CCl)c2c1cc(O)c1cc(NC(C)=O)ccc21)CC3CCl (centres undefined) | 0.0147 µM (active) | 0.012 µM (active) | 0.13 µM (active) | 0.0301 µM (active) | < 0.01 µM (active) | < 0.01 µM (active) | 0.101 µM (active) | 0.0134 µM (active) | < 0.01 µM (active) | < 0.0149 µM (active) | < 0.01 µM (active) | 0.019 µM (active) | 0.0416 µM (active) | 0.0362 µM (active) | 0.105 µM (active) | 0.045 µM (active) | 0.0152 µM (active) | 0.0109 µM (active)
O=C(O)c1cscc1Cc1cccs1 | > 100 µM (inactive) | > 100 µM (inactive) | > 100 µM (inactive) | > 100 µM (inactive) | > 100 µM (inactive) | > 100 µM (inactive) | > 100 µM (inactive) | > 100 µM (inactive) | > 100 µM (inactive) | 23.5 µM (inactive) | > 100 µM (inactive) | > 100 µM (inactive) | > 100 µM (inactive) | > 100 µM (inactive) |  | > 100 µM (inactive) | > 100 µM (inactive) | > 100 µM (inactive)
Clc1ccc(C(c2ccc(Cl)cc2)N2CCNCC2)cc1 | 1.85 µM (inactive) | 1.87 µM (inactive) | 2.22 µM (inactive) | 2.09 µM (inactive) | 2.47 µM (inactive) | 1.78 µM (inactive) | 6.78 µM (inactive) | 16.9 µM (inactive) | 2.16 µM (inactive) |  | 3.01 µM (inactive) | 1.87 µM (inactive) | 1.77 µM (inactive) | 2.74 µM (inactive) | 2.02 µM (inactive) | 2.45 µM (inactive) | 4.22 µM (inactive) | 2.02 µM (inactive)
Fc1ccc(Nc2nc(Cl)c3nc[nH]c3n2)cc1Cl | > 100 µM (inactive) | 45.5 µM (inactive) | > 100 µM (inactive) | > 100 µM (inactive) | 87.3 µM (inactive) | 43.5 µM (inactive) | > 100 µM (inactive) | > 100 µM (inactive) | 34.9 µM (inactive) | > 100 µM (inactive) | > 100 µM (inactive) | 61.8 µM (inactive) | > 100 µM (inactive) | 39.9 µM (inactive) | 4.74 µM (inactive) | > 100 µM (inactive) |  | > 100 µM (inactive)
Cc1ccc(C[N+](C)(C)N)cc1C |  | > 10 µM (inactive) | > 10 µM (inactive) | > 10 µM (inactive) | > 10 µM (inactive) | > 10 µM (inactive) | > 10 µM (inactive) | > 10 µM (inactive) | > 10 µM (inactive) | > 10 µM (inactive) | > 10 µM (inactive) | > 10 µM (inactive) | > 10 µM (inactive) | > 10 µM (inactive) | > 10 µM (inactive) | > 10 µM (inactive) | > 10 µM (inactive) | > 10 µM (inactive)
Cc1ccc(SCN2CCCCC2)cc1.O=C(Cl)c1ccc([N+](=O)[O-])cc1 | 14.7 µM (inactive) |  | 18.5 µM (inactive) | 13.2 µM (inactive) | 13.7 µM (inactive) | 1.92 µM (inactive) | 10.7 µM (inactive) | 1.9 µM (inactive) | 12.6 µM (inactive) | 16.6 µM (inactive) | 9.18 µM (inactive) | 16.2 µM (inactive) | 10.8 µM (inactive) | 10.4 µM (inactive) | 15.2 µM (inactive) | 12.2 µM (inactive) | 6.15 µM (inactive) | 2.78 µM (inactive)
O=C1C(C(O)(C(F)(F)Cl)C(F)(F)Cl)CCCC1C(O)(C(F)(F)Cl)C(F)(F)Cl (centres undefined) | > 10 µM (inactive) | > 10 µM (inactive) | > 10 µM (inactive) | > 10 µM (inactive) | > 10 µM (inactive) | > 10 µM (inactive) | > 10 µM (inactive) | > 10 µM (inactive) | > 10 µM (inactive) | > 10 µM (inactive) | 5.11 µM (inactive) | > 10 µM (inactive) | > 10 µM (inactive) | > 10 µM (inactive) |  | > 10 µM (inactive) | > 10 µM (inactive) | > 10 µM (inactive)
